# Test results taken from patent publication EP1351977B1, “ANTIMICROBIAL PSEUDOPEPTIDES” (INSTITUT NATIONAL DE LA RECHERCHE AGRONOMIQUE (INRA), priority 2001, dated 2004).
# Read-outs that look alike come from different tables or passages of the source. Ends that are not written are not given here.
# What was measured:
# Type in all cases: cell-based
# [1] = test system: Rhizoctonia solani myc; test: Antifungal growth inhibition test in liquid medium
# [2] = test system: Helminthosporium teres sp; test: Antifungal growth inhibition test in liquid medium
# [3] = test system: Botrytis cinerea myc; test: Antifungal growth inhibition test in liquid medium
# [4] = test system: Klebsiella pneumoniae; test: Bacterial growth inhibition test in Petri dish (solid medium), MIC; conditions: MIC extrapolated from inhibition diameter vs log10 concentration
# [5] = test system: Cladosporium myc; test: Antifungal growth inhibition test in liquid medium
# [6] = test system: Salmonella sp.; test: Bacterial growth inhibition test in Petri dish (solid medium), MIC; conditions: MIC extrapolated from inhibition diameter vs log10 concentration
# Description: Deux tests ont été utilisés pour mesurer l'activité antibactérienne des pseudopeptides, un test d'inhibition de la croissance bactérienne en microplaques (de 96 puits) en milieu liquide et un test d'inhibition de la croissance bactérienne en boîte de Pétri en milieu solide. • * Test en microplaques: La culture bactérienne à tester est prélevée en phase exponentielle, puis diluée au 1/500^ème dans du milieu liquide TSB frais. Chaque puits de la microplaque est rempli avec 100 µl de suspension bactérienne diluée. Dans le premier puits, 100 µl de l'échantillon de pseudopeptide à tester est ajouté à la suspension bactérienne, puis l'échantillon est dilué de 2 en 2 en transférant d'un puits à l'autre 100 µl de suspension. La lecture de la microplaque se fait en mesurant la densité optique à […] (DO600nm) après 24h d'incubation à 28°C ou 37°C selon les bactéries cibles. Connaissant la concentration en pseudopeptide de l'échantillon de départ, ce test permet de déterminer la valeur de la CMI (Concentration Minimale d'Inhibition de la croissance bactérienne). Dans ce test, la CMI correspond à la concentration de l'échantillon pour lequel la DO600nm est inférieure à celle du témoin de culture. • * Test en boîte de Pétri: La culture bactérienne à tester est prélevée en phase exponentielle, puis incorporée à 10 ml d'une gélose dite "sous-couche" (Agarose 1% poids/vol; NaCl 100 mM; Trypcase 0.03 % poids/vol; Tampon phosphate 10 mM pH7.4) à raison de 2.10^5 bactéries/ml. Le mélange est coulé dans une boîte de Pétri ordinaire. 9 puits d'environ 10 µl de volume sont formés dans la "sous-couche" à l'aide d'un embout de pipette stérile de 10 ml. Ces puits sont remplis avec une série de dilutions des pseudopeptides à tester (concentration initiale 500 µg/ml, et dilution de deux en deux jusqu'à 1,95 µg/ml). Après diffusion à température ambiante pendant 2h, une gélose dite "sur-couche" (Agarose 1% wt/vol; Trypcase 6 % wt/vol; Tampon phosphate 10 mM pH7.4) est ajoutée sur la sous-couche à raison de 5 à 10 ml. Après solidification, l'ensemble est mis à incuber pendant une nuit. Le diamètre d'inhibition de la culture bactérienne autour de chaque puits est mesuré en mm; il existe une relation linéaire entre le diamètre d'inhibition et le log10 de la concentration en pseudopeptide qui permet de déterminer par extrapolation la valeur de la CMI.
# Une première série de résultats a été obtenue en utilisant le test en boîte de Pétri vis-à-vis de bactéries non pathogènes issues de la collection de Travaux pratiques du laboratoire de Pathologie Comparée de l'Université de Montpellier (France). Dans cette série, les pseudopeptides des pics 5, 7, 8,10 et 11 ont été testés (Tableau 4).
# [7] = test system: Alternaria brassicae; test: Antifungal growth inhibition test in liquid medium
# [8] = test system: Staphylococcus aureus; test: Bacterial growth inhibition test in Petri dish (solid medium), MIC; conditions: MIC extrapolated from inhibition diameter vs log10 concentration
# [9] = test system: Bacillus megaterium; test: as above; conditions: MIC extrapolated from inhibition diameter vs log10 concentration
# [10] = test system: Escherichia coli CIP548; test: as above; conditions: MIC extrapolated from inhibition diameter vs log10 concentration
# [11] = test system: Proteus vulgaris CIP58.60; test: as above; conditions: MIC extrapolated from inhibition diameter vs log10 concentration
# [12] = test system: Pseudomonas fluorescens; test: as above; conditions: MIC extrapolated from inhibition diameter vs log10 concentration
# [13] = test system: Serratia entomophila; test: as above; conditions: MIC extrapolated from inhibition diameter vs log10 concentration
# [14] = test system: Piricularia oryzae sp
# [15] = test system: Botrytis cinerea sp; test: Antifungal growth inhibition test in liquid medium
# [16] = test system: Septoria tritici sp; test: Antifungal growth inhibition test in liquid medium
# [17] = test system: Cladosporium sp; test: Antifungal growth inhibition test in liquid medium
# [18] = test system: Fusarium culmorum sp; test: Antifungal growth inhibition test in liquid medium
# Excerpt: (§1) Les composés des pics 5, 7 et 8 de la figure 1 ont été testées vis-à-vis d'un ensemble de champignons phytopathogènes. Trois doses (10, 20, et 40 ppm) ont été employées pour chacun des composés.
# (§2) L'activité antifongique a été détectée par un test d'inhibition de croissance en milieu liquide. Les spores des champignons à tester ont été mises en suspension dans un milieu de culture de type "Pomme de terre-Glucose". De préférence, on utilise 12 g de milieu Potato Dextrose Broth (Difco) pour 1 litre d'eau déminéralisée. Deux antibiotiques ont été rajoutés au milieu de culture: la tétracycline (concentration finale de 10 µg/ml) et la céfotaxime (100 µg/ml). On dépose 10 µl de chaque composé à tester dans des plaques de microtitration en présence de 90 µl de milieu de culture contenant les spores (à une concentration finale de 10^4 spores/ml). L'incubation a été réalisée en chambre humide à 30°C durant 48 heures. La croissance fongique a été observée au microscope photonique après 24 h et quantifiée après 48 heures par mesure de l'absorbance à 600 nm à l'aide d'un spectrophotomètre lecteur de plaque de microtitration. L'activité des composés contre les champignons phytopathogènes est exprimée par un pourcentage d'inhibition de croissance correspondant à 100 x (1 - absorbance avec produit/ absorbance du témoin sans produit), l'absorbance étant mesurée à 600 nm, 5 jours après le début de l'expérience.
# [19] = test system: Phytophthora myc; test: Antifungal growth inhibition test in liquid medium
# Excerpt: as §1, §2
# [20] = test system: Staphylococcus epidermidis; test: Bacterial growth inhibition test in Petri dish (solid medium), MIC; conditions: MIC extrapolated from inhibition diameter vs log10 concentration
# [21] = test system: Streptococcus Gr. D; test: as above; conditions: MIC extrapolated from inhibition diameter vs log10 concentration
substance,measurement,setting,value
Composé 7: pseudopeptide du pic n° 7 de Xenorhabdus nematophilus F1; Famille 2: Lys Lys Lys Lys Arg Gly; 1080 Da; isomère de masse du pic 11 (KKKKRG; also: pseudopeptide modifications),pourcentage d'inhibition de croissance,[1]; 10 ppm,6%
same,pourcentage d'inhibition de croissance,[1]; 20 ppm,7%
same,pourcentage d'inhibition de croissance,[1]; 40 ppm,64%
same,pourcentage d'inhibition de croissance,[2]; 10 ppm,33%
same,pourcentage d'inhibition de croissance,[2]; 20 ppm,47%
same,pourcentage d'inhibition de croissance,[2]; 40 ppm,80%
same,pourcentage d'inhibition de croissance,[3]; 10 ppm,0%
same,pourcentage d'inhibition de croissance,[3]; 20 ppm,6%
same,pourcentage d'inhibition de croissance,[3]; 40 ppm,34%
same,CMI,[4],30 µg/mL
same,pourcentage d'inhibition de croissance,[5]; 10 ppm,0%
same,pourcentage d'inhibition de croissance,[5]; 20 ppm,40%
same,pourcentage d'inhibition de croissance,[5]; 40 ppm,91%
same,CMI,[6],15 µg/mL
same,pourcentage d'inhibition de croissance,[7]; 10 ppm,25%
same,pourcentage d'inhibition de croissance,[7]; 20 ppm,47%
same,pourcentage d'inhibition de croissance,[7]; 40 ppm,83%
same,CMI,[8],15 µg/mL
same,CMI,[9],"1,5 µg/ml"
same,CMI,[10],15 µg/mL
same,CMI,[11],100 µg/mL
same,CMI,[12],"1,5 µg/ml"
same,CMI,[13],60 µg/mL
same,pourcentage d'inhibition de croissance,[14]; 10 ppm,12%
same,pourcentage d'inhibition de croissance,[14]; 20 ppm,15%
same,pourcentage d'inhibition de croissance,[14]; 40 ppm,21%
same,pourcentage d'inhibition de croissance,[15]; 10 ppm,53%
same,pourcentage d'inhibition de croissance,[15]; 20 ppm,12%
same,pourcentage d'inhibition de croissance,[15]; 40 ppm,83%
same,pourcentage d'inhibition de croissance,[16]; 10 ppm,0%
same,pourcentage d'inhibition de croissance,[16]; 20 ppm,86%
same,pourcentage d'inhibition de croissance,[16]; 40 ppm,89%
same,pourcentage d'inhibition de croissance,[17]; 10 ppm,74%
same,pourcentage d'inhibition de croissance,[17]; 20 ppm,95%
same,pourcentage d'inhibition de croissance,[17]; 40 ppm,95%
same,pourcentage d'inhibition de croissance,[18]; 10 ppm,66%
same,pourcentage d'inhibition de croissance,[18]; 20 ppm,97%
same,pourcentage d'inhibition de croissance,[18]; 40 ppm,97%
same,pourcentage d'inhibition de croissance,[19]; 10 ppm,71%
same,pourcentage d'inhibition de croissance,[19]; 20 ppm,81%
same,pourcentage d'inhibition de croissance,[19]; 40 ppm,78%
"Composé 11: pseudopeptide du pic n° 11 de Xenorhabdus nematophilus F1; Famille 1: Lys Lys Lys Lys Lys Gly; 1080 Da; isomère de masse du pic 7 (KKKKKG; also: pseudopeptide modifications, not given here)",CMI,[4],30 µg/mL
same,CMI,[6],15 µg/mL
same,CMI,[8],"7,5 µg/ml"
same,CMI,[9],"0,75 µg/ml"
same,CMI,[10],15 µg/mL
same,CMI,[11],200 µg/mL
same,CMI,[12],"1,5 µg/ml"
same,CMI,[13],30 µg/mL
Polymixine [reference compound],CMI,[20],20 µg/mL
same,CMI,[6],"0,5 µg/ml"
same,CMI,[8],20 µg/mL
same,CMI,[10],"0,25 µg/ml"
same,CMI,[11],50 µg/mL
"Composé 5: pseudopeptide du pic n° 5 (HPLC, Figure 1) de Xenorhabdus nematophilus F1; Famille 1: Lys Lys Lys Lys Lys Gly; 1052 Da (KKKKKG; also: pseudopeptide modifications)",pourcentage d'inhibition de croissance,[1]; 10 ppm,9.7%
same,pourcentage d'inhibition de croissance,[1]; 20 ppm,85%
same,pourcentage d'inhibition de croissance,[1]; 40 ppm,93%
same,pourcentage d'inhibition de croissance,[2]; 10 ppm,70%
same,pourcentage d'inhibition de croissance,[2]; 20 ppm,91%
same,pourcentage d'inhibition de croissance,[2]; 40 ppm,95%
same,pourcentage d'inhibition de croissance,[3]; 10 ppm,21%
same,pourcentage d'inhibition de croissance,[3]; 20 ppm,34%
same,pourcentage d'inhibition de croissance,[3]; 40 ppm,60%
same,CMI,[21],200 µg/mL
same,CMI,[4],30 µg/mL
same,CMI,[20],30 µg/mL
same,pourcentage d'inhibition de croissance,[5]; 10 ppm,89%
same,pourcentage d'inhibition de croissance,[5]; 20 ppm,90%
same,pourcentage d'inhibition de croissance,[5]; 40 ppm,89%
same,CMI,[6],30 µg/mL
same,pourcentage d'inhibition de croissance,[7]; 10 ppm,82%
same,pourcentage d'inhibition de croissance,[7]; 20 ppm,84%
same,pourcentage d'inhibition de croissance,[7]; 40 ppm,83%
same,CMI,[8],"7,5 µg/ml"
same,CMI,[9],"0,75 µg/ml"
same,CMI,[10],15 µg/mL
same,CMI,[11],200 µg/mL
same,CMI,[12],3 µg/mL
same,CMI,[13],60 µg/mL
same,pourcentage d'inhibition de croissance,[14]; 10 ppm,18%
same,pourcentage d'inhibition de croissance,[14]; 20 ppm,22%
same,pourcentage d'inhibition de croissance,[14]; 40 ppm,45%
same,pourcentage d'inhibition de croissance,[15]; 10 ppm,38%
same,pourcentage d'inhibition de croissance,[15]; 20 ppm,95%
same,pourcentage d'inhibition de croissance,[15]; 40 ppm,95%
same,pourcentage d'inhibition de croissance,[16]; 10 ppm,88%
same,pourcentage d'inhibition de croissance,[16]; 20 ppm,88%
same,pourcentage d'inhibition de croissance,[16]; 40 ppm,85%
same,pourcentage d'inhibition de croissance,[17]; 10 ppm,94%
same,pourcentage d'inhibition de croissance,[17]; 20 ppm,94%
same,pourcentage d'inhibition de croissance,[17]; 40 ppm,94%
same,pourcentage d'inhibition de croissance,[18]; 10 ppm,96%
same,pourcentage d'inhibition de croissance,[18]; 20 ppm,96%
same,pourcentage d'inhibition de croissance,[18]; 40 ppm,96%
same,pourcentage d'inhibition de croissance,[19]; 10 ppm,79%
same,pourcentage d'inhibition de croissance,[19]; 20 ppm,78%
same,pourcentage d'inhibition de croissance,[19]; 40 ppm,77%
"Composé 10: pseudopeptide du pic n° 10 de Xenorhabdus nematophilus F1; Famille 2: Lys Lys Lys Lys Arg Gly; 1094 Da; structure en Figure 3 (KKKKRG; also: pseudopeptide modifications, not given here)",CMI,[4],15 µg/mL
same,CMI,[6],30 µg/mL
same,CMI,[8],"7,5 µg/ml"
same,CMI,[9],"0,75 µg/ml"
same,CMI,[10],"7,5 µg/ml"
same,CMI,[11],200 µg/mL
same,CMI,[12],"1,5 µg/ml"
same,CMI,[13],15 µg/mL
